Source: US12139492B2 (Endotarget Inc., priority 2021, dated 2024)
Like-named read-outs stand apart in the source and are kept apart here.

Columns and labels:
BTK = BTK (Homo sapiens, UniProt Q06187); assay: Degradation of BTK protein in Namalwa cells (Western blot; DC50, Dmax)
Mino cells = assay: Antiproliferative effect, MTS cell viability assay, Mino cells; format: cell-based; details: Mino mantle cell lymphoma cells, read-out: IC50 (anti-proliferation) Mino cells
In short: (§1)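 Steps: seed B-cell lymphoma line; add compound at 0, 0.001, 0.01, 0.1, 1 or 10 μM; incubate 72 h; add MTS and read reduced tetrazolium (formazan) absorbance at 490 nm.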

JeKo-1 cells = assay: Antiproliferative effect, MTS cell viability assay, JeKo-1 cells; format: cell-based; details: JeKo-1 mantle cell lymphoma cells, read-out: IC50 (anti-proliferation) JeKO-1 cells
In short: as §1

[1] = read-out: DC50 (BTK degradation), concentration giving 50% reduction of BTK expression level, cell line not given
[2] = read-out: Dmax (BTK degradation)
[3] = BTK degradation, cell line not given

Sequence of BTK (Q06187 whole entry): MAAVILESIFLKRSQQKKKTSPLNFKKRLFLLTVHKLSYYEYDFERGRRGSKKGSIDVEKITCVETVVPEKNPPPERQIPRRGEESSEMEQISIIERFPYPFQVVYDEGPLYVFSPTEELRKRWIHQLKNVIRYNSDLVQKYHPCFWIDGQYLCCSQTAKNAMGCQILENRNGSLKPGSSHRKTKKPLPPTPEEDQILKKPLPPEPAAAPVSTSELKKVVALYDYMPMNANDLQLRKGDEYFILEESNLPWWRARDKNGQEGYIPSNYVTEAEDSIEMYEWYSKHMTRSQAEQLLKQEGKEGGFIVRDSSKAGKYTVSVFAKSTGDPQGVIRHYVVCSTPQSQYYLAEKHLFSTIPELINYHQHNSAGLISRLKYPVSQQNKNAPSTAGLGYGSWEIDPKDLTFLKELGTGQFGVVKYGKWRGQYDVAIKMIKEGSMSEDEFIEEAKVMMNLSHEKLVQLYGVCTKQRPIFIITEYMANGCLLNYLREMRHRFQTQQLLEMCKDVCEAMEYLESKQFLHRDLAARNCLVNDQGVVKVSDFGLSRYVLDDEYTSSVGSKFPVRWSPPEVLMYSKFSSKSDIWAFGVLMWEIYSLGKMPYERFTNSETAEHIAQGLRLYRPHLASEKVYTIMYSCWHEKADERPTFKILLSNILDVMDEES

| Compound | DC50 (BTK; [1]) [nM] | Dmax (BTK; [2]) [%] | IC50 (Mino cells; Homo sapiens, MINO) [nM] | IC50 (JeKo-1 cells; Homo sapiens) [nM] | Dmax (BTK degradation) (BTK; cell line not given) | IC50 (Mino cells) [nM] | IC50 (JeKo-1 cells) [nM] | Dmax (BTK) [%] | DC50 (BTK; [3]) [nM] | degradation of BTK protein (BTK; Namalwa B lymphocyte cells, various concentrations, 24 hours, Western blot) | IC50 (Mino cells; Homo sapiens) [nM] |
| --- | --- | --- | --- | --- | --- | --- | --- | --- | --- | --- | --- |
| Nc1ncnc2c1c(-c1ccc(Oc3ccccc3)cc1)nn2[C@@H]1CCCN(C2CCN(C(=O)NC3CCC(=O)NC3=O)CC2)C1 (stereo partly drawn) [Compound 517, (3R)-3-(4-amino-3-(4-phenoxyphenyl)-1H-pyrazolo[3,4-d]pyrimidin-1-yl)-N-(2,6-dioxopiperidin-3-yl)-[1,4′-bipiperidine]-1′-carboxamide] | < 10 | > 75 | 1000 to 10000 | 1000 to 10000 |  |  |  |  |  |  |  |
| Nc1ncnc2c1c(-c1ccc(Oc3ccccc3)cc1)nn2C1CCN(CCN2CCC(CN3CCN(c4ccc(NC5CCC(=O)NC5=O)cc4)CC3)C2)CC1 (centres unmarked) [Compound 563, 3-((4-(4-((1-(2-(4-(4-amino-3-(4-phenoxyphenyl)-1H-pyrazolo[3,4-d]pyrimidin-1-yl)piperidin-1-yl)ethyl)pyrrolidin-3-yl)methyl)piperazin-1-yl)phenyl)amino)piperidine-2,6-dione] | 10 to 50 | > 90 | 1000 to 10000 | 1000 to 10000 |  |  |  |  |  |  |  |
| Nc1ncnc2c1c(-c1ccc(Oc3ccccc3)cc1)nn2C1CCN(CCN2CCC(CSc3ccc4c(c3)CN(C3CCC(=O)NC3=O)C4=O)C2)CC1 (centres unmarked) [Compound 474, 3-(5-(((1-(2-(4-(4-amino-3-(4-phenoxyphenyl)-1H-pyrazolo[3,4-d]pyrimidin-1-yl)piperidin-1-yl)ethyl)pyrrolidin-3-yl)methyl)thio)-1-oxoisoindolin-2-yl)piperidine-2,6-dione] | < 10 | > 90 | 1000 to 10000 | 1000 to 10000 |  |  |  |  |  |  |  |
| Nc1ncnc2c1c(-c1ccc(Oc3ccccc3)cc1)nn2C1CCN(CCN2CCC(N3CCN(c4ccc5c(c4)C(=O)N(C4CCC(=O)NC4=O)C5=O)CC3)C2)CC1 (single isomer, unassigned) [Compound 459b, 5-(4-(1-(2-(4-(4-amino-3-(4-phenoxyphenyl)-1H-pyrazolo[3,4-d]pyrimidin-1-yl)piperidin-1-yl)ethyl)pyrrolidin-3-yl)piperazin-1-yl)-2-(2,6-dioxopiperidin-3-yl)isoindoline-1,3-dione] | < 10 |  |  |  | A (A >90%) | < 1000 | < 1000 |  |  |  |  |
| NC(=O)c1c(-c2ccc(Oc3ccccc3)cc2)nn2c1NCC[C@H]2C1CCN(C2CCN(C(=O)N3CCC(CC4CCN(c5ccc6c(c5)C(=O)N(C5CCC(=O)NC5=O)C6=O)CC4)CC3)CC2)CC1 (stereo partly drawn) [Compound 393, (7S)-7-(1′-(4-((1-(2-(2,6-dioxopiperidin-3-yl)-1,3-dioxoisoindolin-5-yl)piperidin-4-yl)methyl)piperidine-1-carbonyl)-[1,4′-bipiperidin]-4-yl)-2-(4-phenoxyphenyl)-4,5,6,7-tetrahydropyrazolo[1,5-a]pyrimidine-3-carboxamide] | 10 to 50 | > 75 | 1000 to 10000 | 1000 to 10000 |  |  |  |  |  |  |  |
| NC(=O)c1c(-c2ccc(Oc3ccccc3)cc2)nn2c1NCC[C@H]2C1CCN(C2CCN(C(=O)N3CCN(C4CCN(c5ccc6c(c5)CN(C5CCC(=O)NC5=O)C6=O)CC4)CC3)CC2)CC1 (stereo partly drawn) [Compound 386, (7S)-7-(1′-(4-(1-(2-(2,6-dioxopiperidin-3-yl)-1-oxoisoindolin-5-yl)piperidin-4-yl)piperazine-1-carbonyl)-[1,4′-bipiperidin]-4-yl)-2-(4-phenoxyphenyl)-4,5,6,7-tetrahydropyrazolo[1,5-a]pyrimidine-3-carboxamide] |  |  | < 1000 | < 1000 |  |  |  | > 90 | < 10 |  |  |
| NC(=O)c1c(-c2ccc(Oc3ccccc3)cc2)nn2c1NCC[C@H]2C1CCN(C(=O)N2CCC(CC3CCN(c4ccc5c(c4)CN(C4CCC(=O)NC4=O)C5=O)CC3)CC2)CC1 (stereo partly drawn) [Compound 294, (7S)-7-(1-(4-((1-(2-(2,6-dioxopiperidin-3-yl)-1-oxoisoindolin-5-yl)piperidin-4-yl)methyl)piperidine-1-carbonyl)piperidin-4-yl)-2-(4-phenoxyphenyl)-4,5,6,7-tetrahydropyrazolo[1,5-a]pyrimidine-3-carboxamide] |  |  | < 1000 | 1000 to 10000 |  |  |  | > 90 | 10 to 50 |  |  |
| NC(=O)c1c(-c2ccc(Oc3ccccc3)cc2)nn2c1NCC[C@H]2C1CCN(C(=O)N2CCN(CCN3CCC(c4ccc5c(c4)C(=O)N(C4CCC(=O)NC4=O)C5=O)CC3)CC2)CC1 (stereo partly drawn) [Compound 303, (7S)-7-(1-(4-(2-(4-(2-(2,6-dioxopiperidin-3-yl)-1,3-dioxoisoindolin-5-yl)piperidin-1-yl)ethyl)piperazine-1-carbonyl)piperidin-4-yl)-2-(4-phenoxyphenyl)-4,5,6,7-tetrahydropyrazolo[1,5-a]pyrimidine-3-carboxamide] |  |  | 1000 to 10000 | 1000 to 10000 |  |  |  | > 75 | 10 to 50 |  |  |
| Nc1ncnc2c1c(-c1ccc(Oc3ccccc3)cc1)nn2C1CCN(C2CCN(C(=O)N3CCN(CCN4CCC(c5ccc6c(c5)C(=O)N(C5CCC(=O)NC5=O)C6=O)CC4)CC3)CC2)CC1 (centres unmarked) [Compound 249, 5-(1-(2-(4-(4-(4-amino-3-(4-phenoxyphenyl)-1H-pyrazol[3,4-d]pyrimidin-1-yl)-[1,4′-bipiperidine]-1′-carbonyl)piperazin-1-yl)ethyl)piperidin-4-yl)-2-(2,6-dioxopiperidin-3-yl)isoindoline-1,3-dione] |  |  | < 1000 | 1000 to 10000 |  |  |  | > 75 | 10 to 50 |  |  |
| NC(=O)c1c(-c2ccc(Oc3ccccc3)cc2)nn2c1NCC[C@H]2C1CCN(C2CCN(C(=O)N3CCN(Cc4ccc5c(c4)CN(C4CCC(=O)NC4=O)C5=O)CC3)CC2)CC1 (stereo partly drawn) [Compound 380, (7S)-7-(1′-(4-((2-(2,6-dioxopiperidin-3-yl)-1-oxoisoindolin-5-yl)methyl)piperazine-1-carbonyl)-[1,4′-bipiperidin]-4-yl)-2-(4-phenoxyphenyl)-4,5,6,7-tetrahydropyrazolo[1,5-a]pyrimidine-3-carboxamide] |  |  | 1000 to 10000 | > 10000 |  |  |  | > 75 | > 50 |  |  |
| Nc1ncnc2c1c(-c1ccc(Oc3ccccc3)cc1)nn2C1CCN(CCN2CC(CN3CCN(c4ccc5c(c4)C(=O)N(C4CCC(=O)NC4=O)C5=O)CC3)C2)CC1 (centres unmarked) [Compound 461, 5-(4-((1-(2-(4-(4-amino-3-(4-phenoxyphenyl)-1H-pyrazolo[3,4-d]pyrimidin-1-yl)piperidin-1-yl)ethyl)azetidin-3-yl)methyl)piperazin-1-yl)-2-(2,6-dioxopiperidin-3-yl)isoindoline-1,3-dione] | < 10 | > 90 | < 1000 | < 1000 |  |  |  |  |  |  |  |
| Nc1ncnc2c1c(-c1ccc(Oc3ccccc3)cc1)nn2C1CCN(C[C@H]2CCN(CC3CN(c4ccc5c(c4)C(=O)N(C4CCC(=O)NC4=O)C5=O)C3)C2)CC1 (stereo partly drawn) [Compound 423a, 5-(3-(((R)-3-((4-(4-amino-3-(4-phenoxyphenyl)-1H-pyrazolo[3,4-d]pyrimidin-1-yl)piperidin-1-yl)methyl)pyrrolidin-1-yl)methyl)azetidin-1-yl)-2-(2,6-dioxopiperidin-3-yl)isoindoline-1,3-dione] | 10 to 50 | > 90 | < 1000 | 1000 to 10000 |  |  |  |  |  |  |  |
| Nc1ncnc2c1c(-c1ccc(Oc3ccccc3)cc1)nn2C1CCN(C2CCN(CC3CN(c4ccc5c(c4)C(=O)N(C4CCC(=O)NC4=O)C5=O)C3)CC2)CC1 (centres unmarked) [Compound 433, 5-(3-((4-(4-amino-3-(4-phenoxyphenyl)-1H-pyrazolo(3,4-d)pyrimidin-1-yl)-(1,4′-bipiperidin)-1′-yl)methyl)azetidin-1-yl)-2-(2,6-dioxopiperidin-3-yl)isoindoline-1,3-dione] | > 50 | > 90 | < 1000 | 1000 to 10000 |  |  |  |  |  | dose-dependent degradation |  |
| Nc1ncnc2c1c(-c1ccc(Oc3ccccc3)cc1)cn2C1CCN(CCN2CC(N3CCN(c4ccc5c(c4)CN(C4CCC(=O)NC4=O)C5=O)CC3)C2)CC1 (centres unmarked) [Compound 464, 3-(5-(4-(1-(2-(4-(4-amino-5-(4-phenoxyphenyl)-7H-pyrrolo[2,3-d]pyrimidin-7-yl)piperidin-1-yl)ethyl)azetidin-3-yl)piperazin-1-yl)-1-oxoisoindolin-2-yl)piperidine-2,6-dione] | 10 to 50 | > 75 | 1000 to 10000 | 1000 to 10000 |  |  |  |  |  |  |  |
| Nc1ncnc2c1c(-c1ccc(Oc3ccccc3)cc1)nn2C1CCN(C2CCN(C(=O)N3CCC(N4CCN(c5ccc6c(c5)CN(C5CCC(=O)NC5=O)C6=O)CC4)CC3)CC2)CC1 (centres unmarked) [Compound 232, 3-(5-(4-(1-(4-(4-amino-3-(4-phenoxyphenyl)-1H-pyrazolo[3,4-d]pyrimidin-1-yl)-[1,4′-bipiperidine]-1′-carbonyl)piperidin-4-yl)piperazin-1-yl)-1-oxoisoindolin-2-yl)piperidine-2,6-dione] |  |  | 1000 to 10000 | 1000 to 10000 |  |  |  | > 90 | < 10 |  |  |
| Nc1ncnc2c1c(-c1ccc(Oc3ccccc3)cc1)nn2C1CCN(CCN2CCC(CN3CCN(c4ccc5c(c4)C(=O)N(C4CCC(=O)NC4=O)C5=O)CC3)CC2)CC1 (centres unmarked) [Compound 453, 5-(4-((1-(2-(4-(4-amino-3-(4-phenoxyphenyl)-1H-pyrazolo(3,4-d)pyrimidin-1-yl)piperidin-1-yl)ethyl)piperidin-4-yl)methyl)piperazin-1-yl)-2-(2,6-dioxopiperidin-3-yl)isoindoline-1,3-dione] | 10 to 50 | > 90 |  | 1000 to 10000 |  |  |  |  |  |  | 1000 to 10000 |
